According to PMC8954747 (Viruses, 2022):
Ends that are not written are not given here.

Biological target: SCRIB PDZ2 H928A (Homo sapiens, UniProt Q14160, H928A)
Assay: biochemical
Assay type: binding

Chain of SCRIB PDZ2 H928A (Q14160 860-950 H928A limits assumed): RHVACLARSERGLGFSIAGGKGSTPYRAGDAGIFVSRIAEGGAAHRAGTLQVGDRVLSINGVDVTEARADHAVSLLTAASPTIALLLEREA

KMARTIESEV [Vietnam (ESEV)] showed a Kd of 3.6 ± 0.7 µM.
